Results taken from patent US6903097B2 (dated 2005).

SMILES | melting point
O=C(NCc1ccc(Cl)cc1)c1ccc2sc(CN3CCOCC3)cc2c1O | 200 °C
CN1N=C(C(=O)NCc2ccc(Cl)cc2)S(=O)(=O)c2cc(C#CCO)sc21 | 98 °C (dec.)
O=C(NCc1ccc(Cl)cc1)c1nn(-c2ccccc2)c2sc(CN3CCOCC3)cc2c1=O | 182 to 184 °C
CN1c2ccc(C#CCO)cc2C(O)=C(C(=O)NCc2ccc(Cl)cc2)S1(=O)=O | 167 to 168 °C
O=C(NCc1ccc(Cl)cc1)c1cnc2ccc(C#CCO)cn2c1=O | 179 to 181 °C

Further lines, results first:

melting point | SMILES
185 to 186 °C | O=C(NCc1ccc(Cl)cc1)c1coc2ccc(C#CCO)cc2c1=O
117 to 120 °C | O=C(NCc1ccc(Cl)cc1)c1noc2ccc(C#CCO)cc2c1=O
201 to 206 °C | Cn1nc(C(=O)NCc2ccc(Cl)cc2)c(=O)c2cc(C#CCO)cnc21
